Source: patent US12655116B2, “Substituted isophthalic acid diamides” (Bayer Aktiengesellschaft, priority 2020, dated 2026)

What was measured:
[1] = tested on: ABUTH; experiment: Pre-emergence herbicidal action against ABUTH; assay type: in vivo, Abutilon theophrasti; conditions: Abutilon theophrasti, 504 h
Method in brief: (§1)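 Herbicidal effect was assessed 3 weeks after treatment by visual comparison with untreated controls, 100% denoting dead plants. Aqueous WP or EC preparations had been applied at 600 to 800 l/ha with 0.2% wetting agent to the soil covering freshly sown seeds.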

[2] = tested on: ALOMY; experiment: Pre-emergence herbicidal action against ALOMY; assay type: in vivo, Alopecurus myosuroides; conditions: Alopecurus myosuroides, 504 h, pre-emergence
Method in brief: as §1

[3] = tested on: AMARE; experiment: Pre-emergence herbicidal action against AMARE; assay type: in vivo, Amaranthus retroflexus; conditions: Amaranthus retroflexus, 504 h, scored visually after 3 weeks vs untreated controls, 100% = plants have died, 0% = like control plants
Method in brief: as §1

[4] = tested on: AVEFA; experiment: Pre-emergence herbicidal action against AVEFA; assay type: in vivo, Avena fatua; conditions: Avena fatua, 504 h, pre-emergence
Method in brief: as §1

[5] = tested on: ECHCG; experiment: Pre-emergence herbicidal action against ECHCG; assay type: in vivo, Echinochloa crus-galli; conditions: Echinochloa crus-galli, 504 h
Method in brief: as §1

[6] = tested on: HORMU; experiment: Pre-emergence herbicidal action against HORMU; assay type: in vivo, Hordeum murinum; conditions: Hordeum murinum, 504 h; 80 g/ha, pre-emergence
Description: Seeds of monocotyledonous and dicotyledonous weed plants and crop plants are laid out in sandy loam soil in wood-fiber pots and covered with soil. The compounds of the invention, formulated in the form of wettable powders (WP) or as emulsion concentrates (EC), are then applied to the surface of the covering soil in the form of an aqueous suspension or emulsion at a water application rate equivalent to 600 to 800 l/ha, with addition of 0.2% wetting agent. After the treatment, the pots are placed in a greenhouse and kept under good growth conditions for the trial plants. The damage to the test plants is scored visually after a test period of 3 weeks by comparison with untreated controls (herbicidal activity in percent (%): 100% activity=the plants have died, 0% activity=like control plants). […] The tables below illustrate, in an illustrative manner, the post-emergence herbicidal action of the compounds of the invention, the herbicidal activity being stated in percent.

[7] = tested on: LOLRI; experiment: Pre-emergence herbicidal action against LOLRI; assay type: in vivo, Lolium rigidum; conditions: Lolium rigidum, 504 h, 80 g/ha
Method in brief: as §1

[8] = tested on: MATIN; experiment: Pre-emergence herbicidal action against MATIN; assay type: in vivo, Matricaria inodora; conditions: Tripleurospermum inodorum, 504 h
Method in brief: as §1

[9] = tested on: SETVI; experiment: Pre-emergence herbicidal action against SETVI; assay type: in vivo, Setaria viridis; conditions: Setaria viridis, 504 h
Method in brief: as §1

[10] = tested on: STEME; experiment: Pre-emergence herbicidal action against STEME; assay type: in vivo, Stellaria media; conditions: Stellaria media, 504 h
Method in brief: as §1

[11] = tested on: VERPE; experiment: Pre-emergence herbicidal action against VERPE; assay type: in vivo, Veronica persica; conditions: Veronica persica, 504 h, dosage 80 g/ha
Method in brief: as §1

[12] = tested on: VIOTR; experiment: Pre-emergence herbicidal action against VIOTR; assay type: in vivo, Viola tricolor; conditions: Viola tricolor, 504 h
Method in brief: as §1

[13] = tested on: DIGSA; experiment: Pre-emergence herbicidal action against DIGSA; assay type: in vivo, Digitaria sanguinalis; conditions: Digitaria sanguinalis, 504 h
Method in brief: as §1

[14] = tested on: ABUTH; experiment: Post-emergence herbicidal action against ABUTH; assay type: in vivo, Abutilon theophrasti; conditions: Abutilon theophrasti, 504 h, visual assessment about 3 weeks after treatment vs untreated controls
Method in brief: (§2)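 Post-emergence greenhouse test; one-leaf stage, 2–3 wk post-sowing, sandy loam. Foliar spray of WP/EC in water, 600–800 l/ha, +0.2% wetting agent. Visual % action at ~3 wk vs untreated (100% = plants dead).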

[15] = tested on: ALOMY; experiment: Post-emergence herbicidal action against ALOMY; assay type: in vivo, Alopecurus myosuroides; conditions: Alopecurus myosuroides, 504 h, dosage 20 g/ha, visual assessment about 3 weeks after treatment vs untreated controls
Method in brief: as §2

[16] = tested on: AMARE; experiment: Post-emergence herbicidal action against AMARE; assay type: in vivo, Amaranthus retroflexus; conditions: Amaranthus retroflexus, 504 h, 20 g/ha, visual assessment about 3 weeks after treatment, 100% = plants have died, 0% = like control plants
Method in brief: as §2

[17] = tested on: AVEFA; experiment: Post-emergence herbicidal action against AVEFA; assay type: in vivo, Avena fatua; conditions: Avena fatua, 504 h, 20 g/ha, visual assessment about 3 weeks after treatment, 100% = plants have died, 0% = like control plants
Method in brief: as §2

[18] = tested on: ECHCG; experiment: Post-emergence herbicidal action against ECHCG; assay type: in vivo, Echinochloa crus-galli; conditions: Echinochloa crus-galli, 504 h
Method in brief: as §2

[19] = tested on: MATIN; experiment: Post-emergence herbicidal action against MATIN; assay type: in vivo, Matricaria inodora; conditions: Tripleurospermum inodorum, 504 h, dosage 20 g/ha
Method in brief: as §2

[20] = tested on: PHBPU; experiment: Post-emergence herbicidal action against PHBPU; assay type: in vivo, Pharbitis purpurea; conditions: Ipomoea purpurea, 504 h
Method in brief: as §2

[21] = tested on: SETVI; experiment: Post-emergence herbicidal action against SETVI; assay type: in vivo, Setaria viridis; conditions: Setaria viridis, 504 h, dosage 20 g/ha
Method in brief: as §2

[22] = tested on: STEME; experiment: Post-emergence herbicidal action against STEME; assay type: in vivo, Stellaria media; conditions: Stellaria media, 504 h
Method in brief: as §2

[23] = tested on: VIOTR; experiment: Post-emergence herbicidal action against VIOTR; assay type: in vivo, Viola tricolor; conditions: Viola tricolor, 504 h
Method in brief: as §2

[24] = tested on: DIGSA; experiment: Post-emergence herbicidal action against DIGSA; assay type: in vivo, Digitaria sanguinalis; conditions: Digitaria sanguinalis, 504 h
Method in brief: as §2

[25] = 80 g/ha, scored visually after 3 weeks vs untreated controls (100% = plants have died, 0% = like control plants)
[26] = 20 g/ha, scored visually after 3 weeks, 100% = plants have died, 0% = like control plants

CCNC(=O)c1c(C(F)(F)F)ccc(C(=O)Nc2nnnn2C)c1Cl [Example 1-130]
pest or weed control at 80 g/ha [1, 25]: 100%
pest or weed control at 20 g/ha ([1]; dosage 20 g/ha, scored visually after 3 weeks vs untreated controls, 100% = plants have died, 0% = like control plants, read-out: Pre-emergence action against ABUTH (herbicidal activity in percent)): 100%
pest or weed control at 80 g/ha [2, 25]: 100%
pest or weed control at 20 g/ha [2, 26]: 100%
pest or weed control at 20 g/ha ([3]; 20 g/ha): 100%
pest or weed control at 80 g/ha ([3]; 80 g/ha): 100%
pest or weed control at 80 g/ha ([4]; 80 g/ha): 100%
pest or weed control at 20 g/ha [4, 26]: 100%
pest or weed control at 20 g/ha ([5]; 20 g/ha): 90%
pest or weed control at 80 g/ha ([5]; 80 g/ha): 100%
pest or weed control at 80 g/ha [6]: 90%
pest or weed control at 80 g/ha [7]: 100%
pest or weed control at 20 g/ha ([8]; dosage 20 g/ha): 100%
pest or weed control at 80 g/ha ([8]; dosage 80 g/ha): 100%
pest or weed control at 20 g/ha ([9]; dosage 20 g/ha): 90%
pest or weed control at 80 g/ha ([9]; dosage 80 g/ha): 100%
pest or weed control at 20 g/ha ([10]; dosage 20 g/ha): 100%
pest or weed control at 80 g/ha ([10]; dosage 80 g/ha): 100%
pest or weed control at 80 g/ha [11]: 80%
pest or weed control at 20 g/ha ([12]; dosage 20 g/ha): 100%
pest or weed control at 80 g/ha ([12]; dosage 80 g/ha): 100%
pest or weed control at 20 g/ha ([13]; dosage 20 g/ha): 100%
pest or weed control at 80 g/ha ([13]; dosage 80 g/ha): 100%
pest or weed control at 5 g/ha ([14]; dosage 5 g/ha): 90%
pest or weed control at 20 g/ha ([14]; dosage 20 g/ha): 90%
pest or weed control at 20 g/ha [15]: 80%
pest or weed control at 20 g/ha [16]: 90%
pest or weed control at 20 g/ha [17]: 80%
pest or weed control at 5 g/ha ([18]; dosage 5 g/ha): 80%
pest or weed control at 20 g/ha ([18]; dosage 20 g/ha): 80%
pest or weed control at 20 g/ha [19]: 80%
pest or weed control at 5 g/ha ([20]; dosage 5 g/ha): 80%
pest or weed control at 20 g/ha ([20]; dosage 20 g/ha): 90%
pest or weed control at 20 g/ha [21]: 80%
pest or weed control at 20 g/ha ([22]; 20 g/ha): 80%
pest or weed control at 5 g/ha ([22]; dosage 5 g/ha): 80%
pest or weed control at 5 g/ha ([23]; 5 g/ha): 90%
pest or weed control at 20 g/ha ([23]; 20 g/ha): 90%
pest or weed control at 5 g/ha ([24]; 5 g/ha): 90%
pest or weed control at 20 g/ha ([24]; 20 g/ha): 90%
